For nine compounds, IC50 results are on record in patent US20260159512A1, “BCAT2 INHIBITORS” (AGIOS PHARMACEUTICALS, INC., priority 2021, published 2026).

Details in all cases: average where tested multiple times
Test [1] addresses T1, hBCAT1 (Homo sapiens, UniProt P54687).
T1 sequence (P54687 1-386): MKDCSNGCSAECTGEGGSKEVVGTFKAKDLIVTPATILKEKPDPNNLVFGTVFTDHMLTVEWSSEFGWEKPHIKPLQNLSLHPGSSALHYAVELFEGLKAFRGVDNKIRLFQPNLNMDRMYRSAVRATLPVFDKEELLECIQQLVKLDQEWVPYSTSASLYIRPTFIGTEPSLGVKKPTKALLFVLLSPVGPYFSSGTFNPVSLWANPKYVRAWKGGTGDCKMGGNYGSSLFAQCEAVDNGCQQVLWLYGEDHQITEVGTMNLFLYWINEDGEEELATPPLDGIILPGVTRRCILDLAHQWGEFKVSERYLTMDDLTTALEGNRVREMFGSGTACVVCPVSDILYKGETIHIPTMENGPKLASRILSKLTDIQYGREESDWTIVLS
As to the kind of experiment: BCAT1 in vitro enzyme inhibition assay (resazurin/diaphorase-coupled fluorescence). It is filed as biochemical. The method in brief:
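Ten-point, 3-fold compound series (top final 100 μM, delivered 1:50 from 50× DMSO stocks) tested against hBCAT1. Inhibition detected via diaphorase-coupled resazurin fluorescence, duplicate wells, with values from repeated runs averaged.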

Test [2] addresses T2, BCAT2 (Homo sapiens, UniProt O15382).
T2 sequence (O15382 28-392): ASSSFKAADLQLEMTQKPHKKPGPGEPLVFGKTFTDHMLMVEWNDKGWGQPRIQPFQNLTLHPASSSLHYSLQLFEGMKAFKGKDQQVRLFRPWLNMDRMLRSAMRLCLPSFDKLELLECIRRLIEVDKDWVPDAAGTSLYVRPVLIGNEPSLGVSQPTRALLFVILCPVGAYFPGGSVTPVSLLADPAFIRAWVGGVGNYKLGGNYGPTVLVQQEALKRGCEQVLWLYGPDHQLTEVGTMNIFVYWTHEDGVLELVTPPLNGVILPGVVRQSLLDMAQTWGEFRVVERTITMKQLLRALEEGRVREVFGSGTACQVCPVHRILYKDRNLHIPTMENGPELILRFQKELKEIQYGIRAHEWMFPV
As to the kind of experiment: BCAT2 in vitro cell inhibition using engineered A549 cells (KMV cell assay, 13C6-KMV by LC-MS/MS). Format: cell-based. Also on record: The result was an engineered A549 cell line that expressed endogenous BCAT2; endogenous in cells; host or cells: A549 cells with MUT and BCAT1 knocked out by CRISPR/CAS9.

In test [3] the target is T2, BCAT2. The test can be described thus: BCAT2 in vitro enzyme inhibition assay (resazurin/diaphorase-coupled fluorescence). It is filed as biochemical. Put shortly: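 Coupled fluorescence readout: glutamate formed from L-leucine/α-ketoglutarate transamination drives GDH/NAD/diaphorase reduction of resazurin (Ex 540/Em 590). Human BCAT2 was first exposed 1 h at room temperature to compound, top final 100 μM in 3-fold, 10-point series; substrate reaction ran 1 h before SDS quench, in technical duplicate with DMSO max and enzyme-free min controls.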
Background: Alamar Blue is a resazurin reagent that responds to reducing activity.

One may read the IC50 as the concentration at which inhibition is half-maximal.

As to `O=C(N[C@H]1CCCN(n2c(-c3ccccc3F)nc3cnc(-c4nc[nH]n4)cc32)C1)c1ncc(Cl)s1` [Example 364, (S)-5-chloro-N-(1-(2-(2-fluorophenyl)-6-(1H-1,2,4-triazol-3-yl)-1H-imidazo[4,5-c]pyridin-1-yl)piperidin-3-yl)thiazole-2-carboxamide], the IC50 in test [1] is below 0.5 µM; in test [2] it was at most 0.1 µM; in test [3], at most 0.1 µM.

With `O=C(N[C@H]1CCC[C@@H](n2c(-c3ncccc3F)nc3cnc(-n4nccn4)cc32)C1)c1ncc(C(F)(F)F)s1` [Example 65, N-((1S,3R)-3-(2-(3-fluoropyridin-2-yl)-6-(2H-1,2,3-triazol-2-yl)-1H-imidazo[4,5-c]pyridin-1-yl)cyclohexyl)-5-(trifluoromethyl)thiazole-2-carboxamide], the IC50 was 0.5 to 1 µM in test [1], at most 0.1 µM in test [2] and at most 0.1 µM in test [3].

As for `O=C(N[C@H]1CCC[C@@H](n2c(-c3ccccc3F)nc3cnc(-c4ccccc4)cc32)C1)c1ncc(Cl)s1` [Example 204, 5-chloro-N-((1S,3R)-3-(2-(2-fluorophenyl)-6-phenyl-1H-imidazo[4,5-c]pyridin-1-yl)cyclohexyl)thiazole-2-carboxamide], the IC50 in test [1] is 0.5 to 1 µM; in test [2], 0.1 to 0.5 µM; in test [3], at most 0.1 µM.

On to `Cc1coc(-c2cc3c(cn2)nc(CC(C)C)n3C2CCCC(NC(=O)c3ncc(Cl)s3)C2O)n1` (stereo not drawn) [Example 211, 5-chloro-N-(2-hydroxy-3-(2-isobutyl-6-(4-methyloxazol-2-yl)-1H-imidazo[4,5-c]pyridin-1-yl)cyclohexyl)thiazole-2-carboxamide], for which the IC50 is below 0.5 µM in test [1], 0.1 to 0.5 µM in test [2] and at most 0.1 µM in test [3].

Consider `Cc1csc(-c2cc3c(cn2)nc(CC(C)C)n3[C@@H]2CCC[C@H](NC(=O)c3ncc(Cl)s3)C2)n1` [Example 326, 5-chloro-N-((1S,3R)-3-(2-isobutyl-6-(4-methylthiazol-2-yl)-1H-imidazo[4,5-c]pyridin-1-yl)cyclohexyl)thiazole-2-carboxamide], for which the IC50 is below 0.5 µM in test [1], at most 0.1 µM in test [2] and at most 0.1 µM in test [3].

For `CC(C)Cc1nc2cnc(-n3nccn3)cc2n1[C@@H]1COC[C@H](NC(=O)c2ccc(Cl)s2)C1` (single isomer, unassigned) [Example 141], the IC50 in test [1] is below 0.5 µM; in test [2], at most 0.1 µM; in test [3] it was at most 0.1 µM.

In the case of `CC(C)(C)Cc1nc2cnc(-c3nc[nH]n3)cc2n1[C@@H]1CCC[C@H](NC(=O)c2ncc(Cl)s2)C1` [Example 162, 5-chloro-N-((1S,3R)-3-(2-neopentyl-6-(1H-1,2,4-triazol-3-yl)-1H-imidazo[4,5-c]pyridin-1-yl)cyclohexyl)thiazole-2-carboxamide], the IC50 in test [1] is below 0.5 µM; in test [2], at most 0.1 µM; in test [3], at most 0.1 µM.

On to `CO[C@@H]1C[C@@H](NC(=O)c2ncc(Cl)s2)C[C@@H](n2c(CC(C)C)nc3cnc(-c4nc[nH]n4)cc32)C1` (stereo in doubt) [Example 414, 5-chloro-N-((1S,3R,5R)-3-(2-isobutyl-6-(1H-1,2,4-triazol-3-yl)-1H-imidazo[4,5-c]pyridin-1-yl)-5-methoxycyclohexyl)thiazole-2-carboxamide], for which the IC50 in test [1] was below 0.5 µM; in test [2], at most 0.1 µM; in test [3], at most 0.1 µM.

Regarding `O=C(NC1COCC(n2c(-c3ncccc3F)nc3cnc(-n4nccn4)cc32)C1)c1ncc(C(F)F)s1` (single isomer, unassigned) [Example 138, 5-(difluoromethyl)-N-(5-(2-(3-fluoropyridin-2-yl)-6-(2H-1,2,3-triazol-2-yl)-1H-imidazo[4,5-c]pyridin-1-yl)tetrahydro-2H-pyran-3-yl)thiazole-2-carboxamide], the results for the IC50 in test [1], in test [2] and in test [3] were 0.5 to 1 µM, 0.1 to 0.5 µM and at most 0.1 µM, respectively.
